Assay results as given in US20070026080A1, “Manufacturing process for tigecycline” (Wyeth, priority 2005, published 2007).
Values joined by “and” are separate entries in the source; they are usually repeats but may differ in a detail not shown here. Equal entries are not always repeated. Marks after values point to notes of the source that are not given here.

Assay: Strength and degradation profile of tigecycline 20 mg/mL bulk solutions by reversed phase HPLC (effect of temperature, time, pH, dissolved oxygen; Runs A to O)
Format: physicochemical
Conditions: 20 mg/mL
Protocol: The contents of the sample vials are dissolved in diluent. The sample solution is diluted, if necessary, and chromatographed on a reversed phase column using gradient elution. Impurities are determined by comparing the impurity peak areas in the sample preparation chromatogram to the average area of tigecycline peaks in the standard preparation chromatograms obtained concomitantly.
Chromatographic Column—Length about 15 cm, inside diameter about 4.6 mm, packed with Inertsil ODS2, 5 μm size particles or equivalent.
Detector—Ultraviolet spectrophotometric detector capable of operating at 248 nm with a sensitivity of about 0.5 absorbance units full scale.
The results of additional studies to investigate the effect of processing parameters such as temperature, time, and dissolved oxygen content on the purity profile of tigecycline solutions using the following materials, methods and procedures are presented in Tables A to O.
The experiments were run in plastic glove bags under normal laboratory light conditions. Plastic glove boxes will be used to control the headspace of the beakers. The batch size was 200 mL. • 1. Prepare the glove bag with a mixture of nitrogen and air to achieve an oxygen level in the solution as per the design. • 2. Place the jacketed beaker on the magnetic stirrer. Connect it to the cooler. Set the cooler to the desired set point. • 3. Add 200 mL of SWFI in to the beaker. Allow equilibrating. Measure the temperature and oxygen content. When it reaches the desired condition, add accurately weighed API and mix until dissolved. If necessary use spatula to aid dissolution. For pH adjustments, use 4 mL of either 0.1N NaOH or 0.1N HCl and 196 mL of WFI for manufacture. • 4. After complete dissolution, Transfer about 5.5 mL of Solution in vials and stopper them. These vials will be stoppered at the appropriate headspace conditions. Place the vials in appropriate temperature conditions. • 5. Sample the vials at 1, 4, 8, 10, 12 and 24 hours. Send the samples for analysis. Freeze the 10, 12 and 24 samples at −20° C. for analysis the following day. • 6. Measure pH and record color of the solution at each time point. Results
The 1-hour samples were taken directly from the beakers. Samples for later time points were collected in stoppered vials processed in the atmosphere of the bag in order to simulate the headspace conditions then placed in water baths or refrigerator to maintain there respective temperature conditions. This was done to maintain safety in the lab. Disposable plastic glove bags require constant flow of a mixture of nitrogen and air to maintain headspace oxygen level that will result in the desired dissolved oxygen (DO) content in the sample. The pH of samples was measured at each sample points.
Strength and degradation profile was analyzed by HPLC as described above. […] Degradation was slightly higher at higher temperature condition.

[1] = Run #D, 8° C., pH 7.7, Oxygen 2.0 mg/L, hours 1,4,8,10,12,24 at r6-r11, after 4 hours
[2] = Run #D, 8° C., pH 7.7, Oxygen 2.0 mg/L, hours 1,4,8,10,12,24 at r6-r11, after 8 hours
[3] = Run #D, 8° C., pH 7.7, Oxygen 2.0 mg/L, hours 1,4,8,10,12,24 at r6-r11, after 10 hours
[4] = Run #D, 8° C., pH 7.7, Oxygen 2.0 mg/L, hours 1,4,8,10,12,24 at r6-r11, after 12 hours
[5] = Run #D, 8° C., pH 7.7, Oxygen 2.0 mg/L, hours 1,4,8,10,12,24 at r6-r11, after 24 hours
[6] = Run #D, 8° C., pH 7.7, Oxygen 2.0 mg/L, hours 1,4,8,10,12,24 at r17-r22, after 1 hours
[7] = Run #D, 8° C., pH 7.7, Oxygen 2.0 mg/L, hours 1,4,8,10,12,24 at r17-r22, after 4 hours
[8] = Run #D, 8° C., pH 7.7, Oxygen 2.0 mg/L, hours 1,4,8,10,12,24 at r17-r22, after 8 hours
[9] = Run #D, 8° C., pH 7.7, Oxygen 2.0 mg/L, hours 1,4,8,10,12,24 at r17-r22, after 10 hours
[10] = Run #D, 8° C., pH 7.7, Oxygen 2.0 mg/L, hours 1,4,8,10,12,24 at r17-r22, after 12 hours
[11] = Run #D, 8° C., pH 7.7, Oxygen 2.0 mg/L, hours 1,4,8,10,12,24 at r17-r22, after 24 hours
[12] = Run #E, 5° C., Oxygen = 2.0 mg/mL, hours 1,4,8,12,24 at r6-r10
[13] = Run #E, 5° C., Oxygen = 2.0 mg/mL, hours 1,4,8,12,24 at r16-r20, 1 hours
[14] = Run #E, 5° C., Oxygen = 2.0 mg/mL, hours 1,4,8,12,24 at r16-r20, 4 hours
[15] = Run #E, 5° C., Oxygen = 2.0 mg/mL, hours 1,4,8,12,24 at r16-r20, 8 hours
[16] = Run #E, 5° C., Oxygen = 2.0 mg/mL, hours 1,4,8,12,24 at r16-r20, 12 hours
[17] = Run #E, 5° C., Oxygen = 2.0 mg/mL, hours 1,4,8,12,24 at r16-r20, 24 hours
[18] = Run #F, 2° C., hours 1,4,8,12,24 at r5-r9, 1 h after preparation
[19] = Run #F, 2° C., hours 1,4,8,12,24 at r5-r9, 4 h after preparation

## CN(C)c1cc(NC(=O)CNC(C)(C)C)c(O)c2c1C[C@H]1C[C@H]3[C@H](N(C)C)C(O)=C(C(N)=O)C(=O)[C@@]3(O)C(O)=C1C2=O [Tigecycline]
Run #D, 8° C., pH 7.7, Oxygen 2.0 mg/L, hours 1,4,8,10,12,24 at r6-r11, after 1 hours
  Strength: 19.168 mg/mL
[1]
  RRT 0.55 MW = 583: 0.16%
  RRT 0.74 Epimer: 0.18%
  Strength: 18.918 mg/mL
[2]
  RRT 0.55 MW = 583: 0.23%
  Strength: 18.915 mg/mL
[3]
  RRT 0.55 MW = 583: 0.27%
  RRT 0.74 Epimer: 0.25%
  Strength: 19.292 mg/mL
[4]
  RRT 0.55 MW = 583: 0.29%
  RRT 0.74 Epimer: 0.24%
  Strength: 18.728 mg/mL
[5]
  RRT 0.55 MW = 583: 0.36%
  RRT 0.74 Epimer: 0.27%
  Strength: 18.050 mg/mL
[6]
  RRT 1.45: 0.07%
  RRT 1.67 MW = 556: 0.10%
  RRT 1.85 MW = 597: 0.08%
  Total: 0.65%
[7]
  RRT 1.45: 0.19%
  RRT 1.67 MW = 556: 0.21%
  Total: 1.09%
[8]
  RRT 1.45: 0.06%
  RRT 1.67 MW = 556: 0.37%
  RRT 1.85 MW = 597: 0.14%
  Total: 1.57%
[9]
  RRT 1.67 MW = 556: 0.24%
  Total: 2.27%
[10]
  RRT 1.45: 0.10%
  RRT 1.67 MW = 556: 0.28%
  RRT 1.85 MW = 597: 0.09%
  Total: 2.47%
[11]
  RRT 1.67 MW = 556: 0.51%
  RRT 1.85 MW = 597: 0.10%
  Total: 4.32%
[12]
  RRT 0.55 MW = 583: 0.43% and 0.07% and 0.17% and 0.22% and 0.33%
  Strength: 17.950 mg/mL and 19.261 mg/mL and 19.215 mg/mL and 18.970 mg/mL and 18.475 mg/mL
[13]
  RRT 0.58: 0.08%
  RRT 0.74 Epimer: 0.16%
  RRT 0.76: 0.05%
  RRT 1.45: 0.08%
  RRT 1.85 MW = 597: 0.08%
  Total: 0.67%
[14]
  RRT 0.58: 0.07%
  RRT 0.74 Epimer: 0.17%
  RRT 1.85 MW = 597: 0.07%
  Total: 0.96%
[15]
  RRT 0.74 Epimer: 0.19%
  RRT 0.76: 0.11%
  RRT 1.45: 0.10%
  RRT 1.85 MW = 597: 0.09%
  Total: 1.58%
[16]
  RRT 0.74 Epimer: 0.24%
  RRT 0.76: 0.12%
  RRT 1.85 MW = 597: 0.11%
  Total: 3.15%
[17]
  RRT 0.58: 0.05%
  RRT 0.74 Epimer: 0.28%
  RRT 0.76: 0.13%
  RRT 1.45: 0.07%
  RRT 1.85 MW = 597: 0.12%
  Total: 4.23%
Run #E, 5° C., Oxygen = 2.0 mg/mL, hours 1,4,8,12,24 at r16-r20, at 24 h Mino is co-eluting, 1 hours
  RRT 1.67 MW = 556: 0.08%
Run #E, 5° C., Oxygen = 2.0 mg/mL, hours 1,4,8,12,24 at r16-r20, at 24 h Mino is co-eluting, 4 hours
  RRT 1.67 MW = 556: 0.16%
Run #E, 5° C., Oxygen = 2.0 mg/mL, hours 1,4,8,12,24 at r16-r20, at 24 h Mino is co-eluting, 8 hours
  RRT 1.67 MW = 556: 0.26%
Run #E, 5° C., Oxygen = 2.0 mg/mL, hours 1,4,8,12,24 at r16-r20, at 24 h Mino is co-eluting, 12 hours
  RRT 1.67 MW = 556: 0.39%
Run #E, 5° C., Oxygen = 2.0 mg/mL, hours 1,4,8,12,24 at r16-r20, at 24 h Mino is co-eluting, 24 hours
  RRT 1.67 MW = 556: 0.44^a %
Run #F, 2° C., Oxygen = 1.0 mg/mL, hours 1,4,8,12,24 at r5-r9, 1 h after preparation
  Strength: 18.733 mg/mL
Run #F, 2° C., Oxygen = 1.0 mg/mL, hours 1,4,8,12,24 at r5-r9, 4 h after preparation
  Strength: 18.700 mg/mL
Run #F, 2° C., Oxygen = 1.0 mg/mL, hours 1,4,8,12,24 at r5-r9, 8 h after preparation
  Strength: 18.729 mg/mL
Run #F, 2° C., Oxygen = 1.0 mg/mL, hours 1,4,8,12,24 at r5-r9, 12 h after preparation
  Strength: 18.543 mg/mL
Run #F, 2° C., Oxygen = 1.0 mg/mL, hours 1,4,8,12,24 at r5-r9, 24 h after preparation
  Strength: 18.818 mg/mL
[18]
  RRT 0.58: 0.08%
  RRT 0.74 Epimer: 0.15%
  RRT 1.45: 0.07%
  RRT 1.64 Mino: 0.10%
  RRT 1.85 MW = 597: 0.07%
  Total: 0.47%
[19]
  RRT 0.58: 0.07%
  RRT 0.74 Epimer: 0.16%
  RRT 1.64 Mino: 0.09%
  RRT 1.85 MW = 597: 0.09%
  Total: 0.71%
Run #F, 2° C., hours 1,4,8,12,24 at r5-r9, 8 h after preparation
  RRT 0.74 Epimer: 0.17%
